Measurements published in paper PMC11904221 (EMBO Molecular Medicine, 2025).
“And” between values parts separate entries of the source, which are not always exact repeats. Identical values can stand only once.

How the values were obtained:
[1] = tested on: aortic ring microvessel sprouting; test: Aortic ring assay; parameters: species or system mouse; settings: 100 nM, VEGF 30 ng/ml
Excerpt: Angiogenesis is a complex intercellular process involving the organization of various cells.

HCT116 tumors = test: Tumor blood flow, laser Doppler, HCT116 tumors; type: in vivo, mouse; settings: Bevacizumab 5 (mg/Kg), individual values
Excerpt: (§1) Tumor growth, apoptosis, proliferation, and/or the angiogenic index of the developed tumors were first evaluated.
(§2) (A) Scheme and workflow of apelin-dm preclinic studies. […] (B–D) Error bars indicate s.e.m. center values indicate mean (Mann–Whitney U test). […] The percentage of relative staining intensity corresponding to CD31, Ki67, and BIM expression in CT-26 and MC-38 tumors of treated mice are shown in (I–N). Scale bar, 100 µm. Data represent mean ± s.e.m. of 3–4 independent experiments. P values were calculated with the Student t test in GraphPad. […] Quantification of tumor area (P) and vascularized area (Q) relative to control untreated CAMs (n = 3 CAM per group) assigned 100%. Data represent mean ± s.e.m. P values were calculated with the Student t test in GraphPad. […] (S, T) The average blood flow expressed in % relative to blood flow measured in […] (S) and MDA-MB231 (T) developed tumors. Data represent mean ± s.e.m. of 3–4 independent experiments. P values were calculated with the Student t test in GraphPad. Source data are available online for this figure.
(§3) Additional experiments involved injecting 1 × 10^6 control CT-26/MC-38/MDA-MB231 cells into BALB/c, C57BL/6, or nude mice, respectively. […] LASER Doppler imaging assessed total blood flow, with FlowR® Hemodynamics visualization used for analysis. Results were expressed as % relative to pre-treatment tumor blood flow.

MDA-MB-231 tumors = test: Tumor blood flow, laser Doppler, MDA-MB-231 tumors; type: in vivo, mouse; settings: Bevacizumab 5 (mg/Kg), individual values
Excerpt: as §1, §2, §3

HUVEC [2] = test: Tube-like formation assay; settings: read-out: EC50 (reduction of 50% of junction number); HUVEC on Geltrex, 18h treatment, 5 nM to 5 μM, GraphPad Prism
[3] = in vitro and in CAM assays; ref Ljoki et al, 2022; Ademi et al, 2021; cited from earlier work
ERK = settings: VEGF 30ng/mL, apelin-dm 100 nM, individual values n = 3
HUVEC [4] = test: VEGF-induced migration of HUVECs; type: cell-based, human; settings: VEGF 30 ng/ml, apelin-dm 100 nM, individual values; control column 95-118
HUVEC [5] = test: HUVEC proliferation with VEGF, IncuCyte confluence; type: cell-based, human
Excerpt: Red arrows indicate the direction of vessel formation. […] All data are representative of three independent experiments. […] The two Furin cleavage sites are shown. […] (S–U) Plasmon waveguide resonance (PWR). […] Source data are available online for this figure.

Substance | VEGF-induced aortic ring sprouting [1] | tumor blood flow, % relative (HCT116 tumors) | tumor blood flow, % relative (MDA-MB-231 tumors) | EC50 (HUVEC [2]) | concentration with inhibitory effects [3] | ERK phosphorylation relative to control untreated HUVEC assigned 100% (ERK) | HUVEC migration (HUVEC [4]) | HUVEC confluence (HUVEC [5]; 0 h, VEGF 30 ng/ml or apelin-dm 100 nM, means, n = 6 wells) | HUVEC confluence (HUVEC [5]; 24 h) | HUVEC confluence (HUVEC [5]; 48 h) | HUVEC confluence (HUVEC [5]; 72 h) | HUVEC confluence (HUVEC [5]; 96 h) | HUVEC confluence (HUVEC [5]; 120 h)
Bevacizumab | apelin-dm was comparable in effect to Bevacizumab | 86 and 65 and 70 and 63 and 59 | 82 and 75 and 69 and 51 | 0.083 µM and 0.13 µM | around 100 nM | – | – | – | – | – | – | – | –
VEGF | – | – | – | – | – | 144.293 and 157.045 and 122.733 | 160 and 250 and 188 and 208 and 299 and 320 and 199 | 10 | 19 | 33 | 55 | 75 | 82
